Tests used:
Type in all cases: cell-based, human
Nav1.8 F1710K [1] = assay: Gating properties, Nav1.8 mutant F1710K
Experimental: (§1) HEK293 cells and ND7/23 cells were grown under standard tissue culture conditions (5% CO2 and 37°C) in DMEM supplemented with 10% FBS, 1% penicillin and 1% streptomycin. Using Invitrogen Lipofectamine 2000, human Nav1.7 R1599P (rpNav1.7) and the mutant constructs were transiently co-transfected with Navβ1 and Navβ2 into HEK293 cells. The constructs human Nav1.8 and mutants were transiently co-transfected with FHF2B or FHF4A into ND7/23 cells. The lipofectamine-DNA mixture was added to the cell culture medium and left for 3 h after which the cells were washed with fresh medium. Cells with green fluorescent protein fluorescence were selected for whole-cell patch-clamp recordings 36–72 h after transfection.
(§2) Whole-cell voltage-clamp recordings were performed at room temperature (~21°C) using an EPC-10 amplifier and the Pulse program (HEKA Electronics). Fire-polished electrodes (0.7–1.0 MΩ) were fabricated from 1.7 mm capillary glass using a P-97 puller (Sutter Instruments), and the tips were coated with sticky wax (KerrLab) to reduce electrode capacitance and enable increased series resistance compensation. The pipette solution contained (in mM) 140 CsF, 1.1 EGTA, 10 NaCl, and 10 HEPES, pH 7.3. The bathing solution was (in mM) 130 mM NaCl, 30 mM TEA chloride, 1 mM MgCl2, 3 mM KCl, 1 mM CaCl2, 10 mM HEPES, and 10 mM d-glucose, pH 7.3 (adjusted with NaOH). […] The offset potential was zeroed before contacting the cell. After establishing the whole-cell recording configuration, the resting potential was held at −120 or −100 mV for 5 min to allow adequate equilibration between the micropipette solution and the cell interior. Linear leak subtraction, based on resistance estimates from four to five hyperpolarizing pulses applied before the depolarizing test potential, was used for all voltage clamp recordings. Membrane currents were usually filtered at 5 kHz and sampled at 20 kHz. […] Voltage errors were minimized using 80–95% series resistance compensation, and the capacitance artifact was canceled using the computer-controlled circuitry of the patch clamp amplifier. […] The concentration-dependent curves were fitted to a hill equation: Y = Bottom + (Top-Bottom)/(1 + 10^((LogEC50-X)*HillSlope)).
(§3) Families of sodium currents were induced by 50-ms depolarizing steps to various potentials ranging from −120 (or −100) to +40 mV in 5-mV increments. The conductance was calculated using the equation G(Nav) = I/(V - Vrev) in which I, V, and Vrev represent inward current value, membrane potential, and reversal potential, respectively.
Voltage dependence of steady-state inactivation was estimated using a standard double pulse protocol in which sodium currents were induced by a 50-ms depolarizing potential of 0 mV following a 500-ms prepulse at potentials that ranged from −150 to +10 mV with a 10-mV increment. Currents were plotted as a fraction of the maximum peak current. To obtain the midpoint voltages (V1/2) and slope factor (k), the curves of both steady-state activation and inactivation were fitted to a Boltzmann function.

Nav1.8 Y387K = assay: INaR, Nav1.8 mutant Y387K; conditions: 1 mM FHF4A peptide, + FHF2B, ND7/23; n = 8; p > 0.05 vs Nav1.8
Experimental: as §1
(§4) Whole-cell voltage-clamp recordings were performed at room temperature (~21°C) using an EPC-10 amplifier and the Pulse program (HEKA Electronics). […]
(§5) INaR: INaR was elicited by repolarizing voltage steps from +20 to −80 mV for 100 ms (or 200 ms) in −5 mV increments, following a 20-ms depolarizing potential of +30 mV. […] The relative INaR in Nav1.7 and Nav1.8 was calculated by normalizing to the peak transient current elicited at −10 or 0 mV.

Nav1.8 Y1717K = assay: INaR, Nav1.8 mutant Y1717K; conditions: 1 mM FHF4A peptide, + FHF2B, ND7/23; n = 10; p > 0.05 vs Nav1.8
Experimental: as §1, §4, §5

Nav1.8 F1710K [2] = assay: INaR, Nav1.8 mutant F1710K; conditions: 1 mM FHF4A peptide
Experimental: as §1, §4, §5

Nav1.8 N390K [3] = assay: Gating properties, Nav1.8 mutant N390K; conditions: 1 mM FHF4A peptide
Experimental: as §1, §2
as §3, with “respectively. […]” for “respectively.”

Nav1.8 N390K [4] = assay: INaR, Nav1.8 mutant N390K; conditions: 1 mM FHF4A peptide
Experimental: as §1, §4, §5

Sequence: AAAIASGLIRQKRQAREQHW [FHF4A peptide, synthetic 20-residue peptide from FHF4A A2 – W21]
- V1/2 of steady-state inactivation, F1710K vs Nav1.8 (Nav1.8 F1710K [1]; 1 mM FHF4A peptide): None of four lysine-mutations significantly changed the V1/2 value of steady-state inactivation
- Inactivation (V1/2), F1710K (Nav1.8 F1710K [1]; 1 mM FHF4A peptide, + FHF2B, ND7/23, n = 7): −41.1 ± 5.5 (7) mV
- Activation (V1/2), F1710K (Nav1.8 F1710K [1]; 1 mM FHF4A peptide, + FHF2B, ND7/23, n = 7, ***p < 0.0001): 19.9 ± 2.0*** (7) mV
- INaP, F1710K (Nav1.8 F1710K [1]; end of 50-ms pulse of +10 mV, normalized to peak transient current, 1 mM FHF4A peptide, n = 6, **p < 0.01): 0.8 ± 0.9^** (6) %
- positive shift of voltage dependence of activation by F1710K (Nav1.8 F1710K [1]; vs Nav1.8, 1 mM FHF4A peptide): 31.0 mV
- average INaR amplitude at −15 mV, Y387K (Nav1.8 Y387K): 5.3% ± 0.5%
- average INaR amplitude at −15 mV, Y1717K (Nav1.8 Y1717K): 4.6% ± 0.8%
- average INaR amplitude at −15 mV, F1710K (Nav1.8 F1710K [2]; + FHF2B, ND7/23, n = 6, p < 0.0001 vs Nav1.8): 0.5% ± 0.1%
- decrease of INaR amplitude by F1710K (Nav1.8 F1710K [2]; −15 mV, vs Nav1.8): ninefold
- V1/2 of steady-state inactivation, N390K vs Nav1.8 (Nav1.8 N390K [3]): None of four lysine-mutations significantly changed the V1/2 value of steady-state inactivation
- Activation (V1/2), N390K (Nav1.8 N390K [3]; + FHF2B, ND7/23, n = 7): −9.7 ± 1.8 (7) mV
- Inactivation (V1/2), N390K (Nav1.8 N390K [3]; + FHF2B, ND7/23, n = 7): −33.5 ± 1.0 (7) mV
- INaP, N390K (Nav1.8 N390K [3]; end of 50-ms pulse of +10 mV, normalized to peak transient current, n = 7, *p < 0.05): 5.6 ± 2.2^* (7) %
- voltage dependence of INaR, N390K (Nav1.8 N390K [4]): slightly shifted the voltage dependence of Nav1.8 INaR to more positive potentials
- average INaR amplitude at −15 mV, N390K (Nav1.8 N390K [4]; + FHF2B, ND7/23, n = 7, p > 0.05 vs Nav1.8): 4.4% ± 0.7%

From article PMC11480954, “Molecular determinants of resurgent sodium currents mediated by Navβ4 peptide and A-type FHFs” (Frontiers in Molecular Neuroscience, 2024)
